Laboratory results taken from ChEMBL document CHEMBL3046519, “Synthesis and biological evaluation of some pyrazole derivatives as anti-inflammatoryantibacterial agents” (2012).
In brackets after ≈: the same amount, converted by molar mass. Activity calls are given as the source filed them. The rule behind the calls is not given here.

Experiments:
[1] = test system: Staphylococcus aureus; test: Antibacterial activity against Staphylococcus aureus MTCC 96 by NCCLS broth macrodilution method; type: functional
[2] = test system: Staphylococcus aureus; test: Antibacterial activity against Staphylococcus aureus MTCC 96 at 4 mg/ml after 24 hr by agar well diffusion method; type: functional; conditions: MTCC 96, 24 h, read-out: DIZ
[3] = test system: Rattus norvegicus; test: Anti-inflammatory activity in Rattus norvegicus Wistar albino (rat) assessed as inhibition of carrageenan-induced paw edema at 50 mg/kg, po administered for 30 min prior to carrageenan challenge measured at 4 hr relative to control; type: functional
[4] = test system: Rattus norvegicus; test: Anti-inflammatory activity in Rattus norvegicus Wistar albino (rat) assessed as inhibition of carrageenan-induced paw edema at 50 mg/kg, po administered for 30 min prior to carrageenan challenge measured at 1 hr relative to control; type: functional
[5] = test system: Bacillus subtilis; test: Antibacterial activity against Bacillus subtilis MTCC 121 by NCCLS broth macrodilution method; type: functional
[6] = test system: Bacillus subtilis; test: Antibacterial activity against Bacillus subtilis MTCC 121 at 4 mg/ml after 24 hr by agar well diffusion method; type: functional; conditions: MTCC 121, 24 h, read-out: DIZ
[7] = test system: Rattus norvegicus; test: Anti-inflammatory activity in Rattus norvegicus Wistar albino (rat) assessed as inhibition of carrageenan-induced paw edema at 50 mg/kg, po administered for 30 min prior to carrageenan challenge measured at 3 hr relative to control; type: functional
[8] = test system: Escherichia coli; test: Antibacterial activity against Escherichia coli MTCC 1652 at 4 mg/ml after 24 hr by agar well diffusion method; type: functional, organism-based
[9] = test system: Pseudomonas aeruginosa; conditions: MTCC 741, 4 mg/ml
Description: Antibacterial activity against Pseudomonas aeruginosa MTCC 741 at 4 mg/ml after 24 hr by agar well diffusion method

[10] = test system: Rattus norvegicus; test: Anti-inflammatory activity in Rattus norvegicus Wistar albino (rat) assessed as inhibition of carrageenan-induced paw edema at 50 mg/kg, po administered for 30 min prior to carrageenan challenge measured at 2 hr relative to control; type: functional

SMILES | MIC [1] [µg/mL] | zone of inhibition at 4000 µg/mL [2] [mm] | inhibition in vivo at 50 mg/kg [3] [%] | inhibition in vivo at 50 mg/kg [4] [%] | MIC [5] [µg/mL] | zone of inhibition at 4000 µg/mL [6] [mm] | inhibition in vivo at 50 mg/kg [7] [%] | diameter of the inhibition zone (DIZ) [8] | DIZ [9] | inhibition in vivo at 50 mg/kg [10] [%]
Cc1ccc(-c2nn(-c3ccc(S(N)(=O)=O)cc3)cc2/C=N/NC(N)=S)cc1 | > 128 | 16.3 | 70 | 32 | > 128 | 14.3 | 75 | inactive | inactive | 72
NS(=O)(=O)c1ccc(-n2cc(/C=N/Nc3nc(-c4ccccc4)cs3)c(-c3ccccc3)n2)cc1 | > 128 | 14.3 | 72 | 33 | > 128 | 14.6 | 69 | inactive | inactive | 71
COc1ccc(-c2nn(-c3ccc(S(N)(=O)=O)cc3)cc2/C=N/Nc2nc(-c3ccc(C)cc3)cs2)cc1 | 64 (≈ 118 µM) | 20.6 | 70 | 37 | 128 (≈ 235 µM) | 17.3 | 72 | inactive | inactive | 65
NS(=O)(=O)c1ccc(-n2cc(/C=N/Nc3nc(-c4ccccc4)cs3)c(-c3ccc(Cl)cc3)n2)cc1 | > 128 | 13.3 | 56 | 22 | > 128 | 15.6 | 57 | inactive | inactive | 62
NS(=O)(=O)c1ccc(-n2cc(/C=N/Nc3nc(-c4ccc(Cl)cc4)cs3)c(-c3ccccc3)n2)cc1 | > 128 | 13.6 | 70 | 32 | > 128 | 15.3 | 75 | inactive | inactive | 72
Cc1ccc(-c2nn(-c3ccc(S(N)(=O)=O)cc3)cc2/C=N/Nc2nc(-c3ccccc3)cs2)cc1 | > 128 | 15.3 | 56 | 33 | > 128 | 13.6 | 75 | inactive | inactive | 60
Cc1ccc(-c2csc(N/N=C/c3cn(-c4ccc(S(N)(=O)=O)cc4)nc3-c3ccc(F)cc3)n2)cc1 | > 128 | 15.6 | 70 | 33 | > 128 | 14.3 | 73 | inactive | inactive | 72
NC(=S)N/N=C/c1cn(-c2ccc(S(N)(=O)=O)cc2)nc1-c1ccc(Cl)cc1 | > 128 | 14 | 71 | 33 | > 128 | 13.6 | 77 | inactive | inactive | 76
NS(=O)(=O)c1ccc(-n2cc(/C=N/Nc3nc(-c4ccc(Cl)cc4)cs3)c(-c3ccc(F)cc3)n2)cc1 | > 128 | 14.3 | 75 | 35 | > 128 | 13.3 | 73 | inactive | inactive | 29
NC(=S)N/N=C/c1cn(-c2ccc(S(N)(=O)=O)cc2)nc1-c1ccccc1 | 128 (≈ 320 µM) | 17 | 63 | 35 | 64 (≈ 160 µM) | 19.6 | 67 | inactive | inactive | 59
COc1ccc(-c2nn(-c3ccc(S(N)(=O)=O)cc3)cc2/C=N/Nc2nc(-c3ccccc3)cs2)cc1 | > 128 | 15.3 | 61 | 32 | > 128 | 15.6 | 61 | inactive | inactive | 65
Cc1ccc(-c2csc(N/N=C/c3cn(-c4ccc(S(N)(=O)=O)cc4)nc3-c3ccc(Cl)cc3)n2)cc1 | > 128 | 15.3 | 73 | 5 | > 128 | 14.6 | 70 | inactive | inactive | 61
NC(=S)N/N=C/c1cn(-c2ccc(S(N)(=O)=O)cc2)nc1-c1ccc(F)cc1 | > 128 | 15.6 | 75 | 24 | > 128 | 15.3 | 73 | inactive | inactive | 75
NS(=O)(=O)c1ccc(-n2cc(/C=N/Nc3nc(-c4ccc(Cl)cc4)cs3)c(-c3ccc(Cl)cc3)n2)cc1 | > 128 | 14.6 | 58 | 28 | > 128 | 15 | 73 | inactive | inactive | 67
COc1ccc(-c2nn(-c3ccc(S(N)(=O)=O)cc3)cc2/C=N/NC(N)=S)cc1 | > 128 | 13.6 | 71 | 28 | > 128 | 15 | 59 | inactive | inactive | 76
NS(=O)(=O)c1ccc(-n2cc(/C=N/Nc3nc(-c4ccccc4)cs3)c(-c3ccc(F)cc3)n2)cc1 | > 128 | 14.6 | 56 | 11 | > 128 | 16.6 | 65 | inactive | inactive | 60
